From publication PMC6173509, “C-3- and C-4-Substituted Bicyclic Coumarin Sulfamates as Potent Steroid Sulfatase Inhibitors” (ACS Omega, 2018) come the findings set out here.

Each structure is given as a SMILES string.

Experiment [1] addresses T1, steroid sulfatase (STS) (Homo sapiens, UniProt P08842).
T1 sequence (P08842 22-583): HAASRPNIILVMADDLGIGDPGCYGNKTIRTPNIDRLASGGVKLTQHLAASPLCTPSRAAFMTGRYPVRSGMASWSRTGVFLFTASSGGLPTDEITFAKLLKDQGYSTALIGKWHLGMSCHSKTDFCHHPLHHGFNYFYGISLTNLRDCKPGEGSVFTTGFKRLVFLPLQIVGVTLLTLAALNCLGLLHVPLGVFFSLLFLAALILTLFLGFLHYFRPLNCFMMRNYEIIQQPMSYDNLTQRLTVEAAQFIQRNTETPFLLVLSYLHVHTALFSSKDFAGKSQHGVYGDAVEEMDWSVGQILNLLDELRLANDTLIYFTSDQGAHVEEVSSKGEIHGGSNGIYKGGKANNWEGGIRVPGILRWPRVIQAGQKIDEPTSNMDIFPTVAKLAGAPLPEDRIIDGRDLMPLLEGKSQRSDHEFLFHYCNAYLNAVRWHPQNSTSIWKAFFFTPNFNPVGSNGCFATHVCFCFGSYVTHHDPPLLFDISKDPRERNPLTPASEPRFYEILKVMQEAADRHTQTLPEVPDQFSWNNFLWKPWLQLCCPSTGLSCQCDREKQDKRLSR
As to the kind of experiment: STS inhibition in intact MCF-7 breast cancer cells. In kind it is cell-based. Also on record: endogenous in cells; host or cells: MCF-7 breast cancer cells. The settings on record: for inhibition at 0.1 µM: MCF7, read-out: % Inhibition of STS Activity in Intact MCF-7 Breast Cancer Cells at 0.1 μM; for inhibition at 1 µM: MCF7, read-out: % Inhibition of STS Activity in Intact MCF-7 Breast Cancer Cells at 1 μM; for inhibition at 10 µM: MCF7, read-out: % Inhibition of STS Activity in Intact MCF-7 Breast Cancer Cells at 10 μM.

Experiment [2] deals with T1, steroid sulfatase (STS). The experiment is described as follows: STS inhibition in placental microsomes. In kind it is biochemical. The arrangement: a placental microsomal preparation from a sulfatase-positive human placenta from a normal term pregnancy; from tissue; host or cells: human placenta (microsomal preparation). The conditions noted are these: 20 μM E1S; for inhibition at 0.01 µM: 0.01 μM inhibitor; for inhibition at 0.1 µM: 0.1 μM inhibitor; for inhibition at 1 µM: 1 μM inhibitor; for inhibition at 10 µM: 10 μM inhibitor.

As for `NS(=O)(=O)Oc1ccc2c(-c3ccccc3)cc(=O)oc2c1` [compound 22, 4-Phenylcoumarin-7-O-sulfamate], at steroid sulfatase (STS) [1], the inhibition – broadly, how much of the control response was suppressed – at 0.1 µM is 36%; the inhibition at 1 µM came to 79%; the inhibition at 10 µM was found to be 87%. Further, the IC50 (commonly the midpoint of a concentration-inhibition curve) at steroid sulfatase (STS) [2] stood at 0.2 µM.
For `CCCCc1cc(=O)oc2cc(OS(N)(=O)=O)ccc12` [compound 9, 4-Butylcoumarin-7-O-sulfamate], on steroid sulfatase (STS) [1], the inhibition at 0.1 µM worked out at 85%, the inhibition at 1 µM was 91% and the inhibition at 10 µM stood at 93%. On steroid sulfatase (STS) [2], this compound yielded an inhibition at 0.01 µM of 10%, an inhibition at 0.1 µM of 49%, an inhibition at 1 µM of 91% and an inhibition at 10 µM of 98%. At steroid sulfatase (STS) [2], this compound returned an IC50 of 0.102 µM.
For the compound `CCCCCCCc1cc(=O)oc2cc(OS(N)(=O)=O)ccc12` [compound 12, 4-Heptylcoumarin-7-O-sulfamate], on steroid sulfatase (STS) [1], the inhibition at 0.1 µM is 93%, the inhibition at 1 µM was 95% and the inhibition at 10 µM turned out to be 99%. At steroid sulfatase (STS) [2], testing at 0.01 µM gave an inhibition of 8%, the inhibition at 0.1 µM turned out to be 64%, testing at 1 µM gave an inhibition of 97% and the inhibition at 10 µM is 99%. Also, the IC50 on steroid sulfatase (STS) [2] worked out at 0.09 µM.
Turning to `CCCCCCCCCCCCCCc1c(C)c2ccc(OS(N)(=O)=O)cc2oc1=O` [compound 37, 4-Methyl 3-tetradecylcoumarin-7-O-sulfamate], the IC50 against steroid sulfatase (STS) [2] came out at 10 µM.
With `CC(C)Cc1cc(=O)oc2cc(OS(N)(=O)=O)ccc12` [compound 20, 4-(1′,1′-Dimethylethyl)coumarin-7-O-sulfamate], on steroid sulfatase (STS) [2], at 0.1 µM the inhibition was 19% and testing at 1 µM gave an inhibition of 97%.
Consider `Cc1c(Cl)c(=O)oc2cc(OS(N)(=O)=O)ccc12` [compound 39, 3-Chloro-4-methylcoumarin-7-O-sulfamate], for which, on steroid sulfatase (STS) [1] (3 nM E1S), it took 0.6 µM to reach half-maximal inhibition (IC50). For the same compound, on steroid sulfatase (STS) [1], the inhibition at 0.1 µM amounted to 29%, the inhibition at 1 µM turned out to be 67% and the inhibition at 10 µM is 87%.
At steroid sulfatase (STS) [2], `CC(C)c1cc(=O)oc2cc(OS(N)(=O)=O)ccc12` [compound 19, 4-(Prop-2-yl)coumarin-7-O-sulfamate] gave an inhibition at 0.1 µM of 86%, an inhibition at 1 µM of 90% and an inhibition at 10 µM of 94%.
At steroid sulfatase (STS) [2], `NS(=O)(=O)Oc1ccc2c(CC34CC5CC(CC(C5)C3)C4)cc(=O)oc2c1` [compound 27, 4-(1-Adamantanemethyl)coumarin-7-O-sulfamate] showed an inhibition at 0.1 µM of 8% and an inhibition at 1 µM of 96%.
The corresponding values for `Cc1c(CC2CCCCC2)c(=O)oc2cc(OS(N)(=O)=O)ccc12` [compound 44, 3-Cyclohexylmethyl-4-methylcoumarin-7-O-sulfamate] are 74% and 99%.
At steroid sulfatase (STS) [2], `CCCCCCCCCCCc1cc(=O)oc2cc(OS(N)(=O)=O)ccc12` [compound 16, 4-Undecylcoumarin-7-O-sulfamate] came in with an inhibition at 0.01 µM of 8%, an inhibition at 0.1 µM of 56%, an inhibition at 1 µM of 92% and an inhibition at 10 µM of 97%. This compound displayed a half-inhibitory concentration (IC50) against steroid sulfatase (STS) [2] of 0.073 µM.
At steroid sulfatase (STS) [2], `Cc1c(CCC2CCCCC2)c(=O)oc2cc(OS(N)(=O)=O)ccc12` [compound 45, 3-(2-Cyclohexylethyl)-4-methylcoumarin-7-O-sulfamate] showed an inhibition at 0.1 µM of 37% and an inhibition at 1 µM of 99%.
Consider `CCCCCCCCCCCc1c(C)c2ccc(OS(N)(=O)=O)cc2oc1=O` [compound 34, 4-Methyl-3-undecylcoumarin-7-O-sulfamate], for which the IC50 at steroid sulfatase (STS) [2] was determined as 2 µM.
